Common to all, as to assay: relative viability (nuclei count vs DMSO), 5 days (fraction); higher = more cells survive
Compound in assay [1]: CCn1c(-c2nonc2N)nc2c(C#CC(C)(C)O)ncc(OC[C@H]3CCCNC3)c21 + Cc1nc(NC(=O)N2CCC[C@H]2C(N)=O)sc1-c1ccnc(C(C)(C)C(F)(F)F)c1 [Alpelisib] (partner 2 µM)
A digest of the protocol:
(§1)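 Values are medians from duplicate plates. Each reflects relative viability, defined as the nuclei count of treated wells over that of vehicle wells. Lung cancer cell lines in 1536-well plates were pin-tool dosed one day after seeding with one drug alone or with a fixed anchor-drug dose plus five library-drug doses (not always all listed) in √10 steps, then fixed, stained and imaged at 4× after 5 days.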

Compound in assay [2]: CCn1c(-c2nonc2N)nc2c(C#CC(C)(C)O)ncc(OC[C@H]3CCCNC3)c21 + C[C@]1(O)C[C@@H](c2nc(-c3ccc4ccc(-c5ccccc5)nc4c3)c3c(N)nccn32)C1 [Linsitinib] (partner 1 µM)
A digest of the protocol:
as §1

Compound in assay [3]: CCn1c(-c2nonc2N)nc2c(C#CC(C)(C)O)ncc(OC[C@H]3CCCNC3)c21 + C[C@@H](Oc1cc(-c2cnn(C3CCNCC3)c2)cnc1N)c1c(Cl)ccc(F)c1Cl [Crizotinib] (partner 1 µM)
A digest of the protocol:
as §1

Compound in the assay “BAM7 + Decitabine”: CCOC1=CC=CC=C1N=NC2=C(NN(C2=O)C3=NC(=CS3)C4=CC=CC=C4)C [BAM7] + Nc1ncn([C@H]2C[C@H](O)[C@@H](CO)O2)c(=O)n1 [Decitabine] (partner 2 µM)
The gist of the method:
as §1

On to UMC-11, for which the relative viability turned out to be 1.04 in assay [1] (first compound 0.01 µM); 0.974 in assay [1] (first compound 0.03162 µM); 0.969 in assay [1] (first compound 0.1 µM); 0.96 in assay [1] (first compound 0.3162 µM); 0.976 in assay [1] (first compound 1 µM); 0.991 in assay [2] (first compound 0.01 µM). The relative viability is 1.05 in assay [2] (first compound 0.03162 µM); 0.974 in assay [2] (first compound 0.1 µM); 0.976 in assay [2] (first compound 0.3162 µM); 1.04 in assay [2] (first compound 1 µM); 0.704 in assay [3] (first compound 0.01 µM); 0.695 in assay [3] (first compound 0.03162 µM). The relative viability in assay [3] (first compound 0.1 µM) came out at 0.65; in assay [3] (first compound 0.3162 µM), 0.645; in assay [3] (first compound 1 µM), 0.547; with BAM7 + Decitabine (first compound 0.5 µM), 0.603; with BAM7 + Decitabine (first compound 5 µM), 0.687; with BAM7 + Decitabine (first compound 15.81 µM) it was 0.618. Also, in the assay with BAM7 + Decitabine (first compound 50 µM), the relative viability was 0.635.

The values are drawn from the supplement of paper PMC10307832.
